Data on 6 compounds can be found in US11359200B2, “Cancer treatment by MALAT1 inhibition” (THE CLEVELAND CLINIC FOUNDATION, priority 2017, dated 2022).

One series deals with γH2A.X. Kind of series: Immunofluorescence staining and western blot for γH2A.X after MALAT1 knock-down. In kind it is cell-based, Human. The following applies: H929, MM.1S and RPMI8226 cells, 48 h after transfection. How it is done: Protein was extracted from cells using RIPA buffer (Thermo Fisher Scientific) containing protease inhibitor cocktail (Roche) and phosphatase inhibitor cocktail (Thermo Fisher Scientific). Protein extracts were boiled in SDS/β-mercaptoethanol sample buffer, and 30 μg samples were loaded into each well on 4%-12% polyacrylamide gels (Thermo Fisher Scientific). The proteins were separated by electrophoresis, and the proteins in the gels were blotted onto PVDF membranes (Thermo Fisher Scientific) by electrophoretic transfer. […] The specific protein—antibody complex was detected with horseradish peroxidase-conjugated rabbit anti-mouse IgG. […]
In general terms: In western blotting, separated proteins are transferred to a membrane and probed.

The next series deals with MALAT1. Kind of series: MALAT1 knock-down in MM cells by qRT-PCR. In kind it is cell-based, Human. The note with it: H929, MM.1S and RPMI8226 cells, 48 h after transfection. How it is done:
(§1) For anti-MALAT1 transfection and ABT-888 (Santa Cruz Biotechnology Inc) or bortezomib (MilliporeSigma) treatment, MM cells were seeded on 12-well plates at a concentration of 5×10^5 cells/mL. The cells were transfected using Lipofectamine 2000 (Thermo Fisher Scientific) with 1 nM control or anti-MALAT1 oligos for 24 hours and then treated with a gradient concentration of ABT-888 or bortezomib for another 24 hours. Cells were subjected to proliferation and apoptosis assays, qRT-PCR, and immunoblotting.
Quantitative RT-PCR (qRT-PCR) analysis was used to determine the relative expression level of MALAT1. Total RNA was extracted from cells or tissues using Trizol Reagent (Thermo Fisher Scientific) according to the manufacturer's instructions. After Turbo DNase (Thermo Fisher Scientific) treatment, 500 ng total RNA was subjected to reverse transcription using the RevertAid first-stand cDNA synthesis kit (Thermo Fisher Scientific). Quantitative PCR using SYBR Green PCR master mix (Thermo Fisher Scientific) was employed to determine MALAT1 level with PCR cycle conditions of 95° C. 10 min, 95° C. 15 s, and 60° C. 1 min, for 40 cycles. GAPDH was used as loading control.
For orientation: In qPCR the cycle at which signal appears reflects the starting amount.

For the next series, the target named is T1, PARP1 (Homo sapiens, UniProt P09874).
T1 construct: Protein was extracted from cells using RIPA buffer; endogenous in cells; host or cells: H929, MM.1S (human multiple myeloma cell lines, ATCC)
In words: Immunoblotting after anti-MALAT1 and ABT-888 treatment. It counts as cell-based. How it is done: (§2) Cells were subjected to proliferation and apoptosis assays, qRT-PCR, and immunoblotting.
(§3) Protein was extracted from cells using RIPA buffer (Thermo Fisher Scientific) containing protease inhibitor cocktail (Roche) and phosphatase inhibitor cocktail (Thermo Fisher Scientific). Protein extracts were boiled in SDS/β-mercaptoethanol sample buffer, and 30 μg samples were loaded into each well on 4%-12% polyacrylamide gels (Thermo Fisher Scientific). The proteins were separated by electrophoresis, and the proteins in the gels were blotted onto PVDF membranes (Thermo Fisher Scientific) by electrophoretic transfer. […] The specific protein—antibody complex was detected with horseradish peroxidase-conjugated rabbit anti-mouse IgG. Detection by chemiluminescence reaction was carried using the SuperSignal West Femto Maximum Sensitivity Substrate kit (Thermo Fisher Scientific). β-actin was used as a loading control.

The subject of a further series is BRCA1 and BRCA2. In words: Immunoblotting of BRCA1 and BRCA2 after bortezomib treatment. In kind it is cell-based, Human. The following applies: H929, MM.1S and RPMI8226, high-dose bortezomib. How it is done:
as §2, §3

The subject of another series is RPMI8226/V10R cells. In words: Cell viability assay, bortezomib-resistant cells. The note with it: Homo sapiens, RPMI-8226, 72 h. It counts as cell-based. How it is done: (§4) For the drug resistant cells, RPMI8226/DOX40, RPMI8226/LR5 and RPMI8226/V10R cells were transfected with 1 nM control or anti-MALAT1 oligos separately for 24 hours and treated with a gradient concentration of doxorubicin for RPMI8226/DOX40, or melphalan for RPMI8226/LR5, or bortezomib for RPMI8226/V10R for 72 hours. Cell were subjected to qRT-PCR, proliferation and apoptosis assays.
(§5) MM cell lines (MM.1S, H929 and RPMI8226) and drug resistant MM cell lines (RPMI8226/LR5, RPMI8226/DOX40 and RPMI8226/V10R) were treated with anti-MALAT1 oligos for 24 hours. 2×10^4 cells/well were seeded in a 96-well plate with 100 μL medium containing gradient concentration of bortezomib, melphalan or doxorubicin per well. After 72 hours culture, cells were subjected to cell viability assay using CellTilter 96® Aqueous One Solution Cell Proliferation Assay (Promega Corporation), according to the manufacturer's instructions. The half maximal inhibitory concentration (IC50) was calculated by Graphpad Prism V5.0.

A further series has as its system RPMI8226 cells. Kind of series: Cell viability assay, bortezomib with or without MALAT1 knockdown. In kind it is cell-based. The note with it: Homo sapiens, RPMI-8226, third cell line (RPMI8226, FIG. 6C). How it is done: as §1, §5
For a further series, the system named is MM.1S cells. The description is as above. In kind it is cell-based. The note with it: Homo sapiens, MM1.S. How it is done:
as §1, §5

A further series deals with H929 cells. Described as above. In kind it is cell-based. The note with it: Homo sapiens. How it is done: as §1, §5
Series [1] has as its system H929, MM.1S and RPMI8226 cells. Kind of series: MM cell apoptosis assay (annexin V/PI flow cytometry). In kind it is cell-based, Human. The note with it: high-/low-dose bortezomib treatment. How it is done: as §1
After transfection of cells with anti-MALAT1 #1 or #2 and control, apoptosis was evaluated by assaying for annexin V. Cells were stained with APC Annexin V Apoptosis Detection Kit with PI (BioLegend), according to the manufacturer's instructions. Stained cells were analyzed using flow cytometry, and data were analyzed using Flowjo software (Ashland).
For orientation: Flow cytometry measures light scatter and fluorescence of single cells or particles in a stream.

The test system of another series is RPMI8226/DOX40 cells. Kind of series: Cell viability assay, doxorubicin-resistant cells. It counts as cell-based. The following applies: Homo sapiens, RPMI-8226, 72 h. How it is done:
as §4, §5

A further series concerns RPMI8226/LR5 cells. Kind of series: Cell viability assay, melphalan-resistant cells. It counts as cell-based. The note with it: Homo sapiens, RPMI-8226, 72 h. How it is done:
as §4, §5

[2] abbreviates: transfected with 1 nM anti-MALAT1, 72 hours.

d = 2'-deoxy (DNA); m = 2'-O-methyl

T1 sequence (P09874 whole entry): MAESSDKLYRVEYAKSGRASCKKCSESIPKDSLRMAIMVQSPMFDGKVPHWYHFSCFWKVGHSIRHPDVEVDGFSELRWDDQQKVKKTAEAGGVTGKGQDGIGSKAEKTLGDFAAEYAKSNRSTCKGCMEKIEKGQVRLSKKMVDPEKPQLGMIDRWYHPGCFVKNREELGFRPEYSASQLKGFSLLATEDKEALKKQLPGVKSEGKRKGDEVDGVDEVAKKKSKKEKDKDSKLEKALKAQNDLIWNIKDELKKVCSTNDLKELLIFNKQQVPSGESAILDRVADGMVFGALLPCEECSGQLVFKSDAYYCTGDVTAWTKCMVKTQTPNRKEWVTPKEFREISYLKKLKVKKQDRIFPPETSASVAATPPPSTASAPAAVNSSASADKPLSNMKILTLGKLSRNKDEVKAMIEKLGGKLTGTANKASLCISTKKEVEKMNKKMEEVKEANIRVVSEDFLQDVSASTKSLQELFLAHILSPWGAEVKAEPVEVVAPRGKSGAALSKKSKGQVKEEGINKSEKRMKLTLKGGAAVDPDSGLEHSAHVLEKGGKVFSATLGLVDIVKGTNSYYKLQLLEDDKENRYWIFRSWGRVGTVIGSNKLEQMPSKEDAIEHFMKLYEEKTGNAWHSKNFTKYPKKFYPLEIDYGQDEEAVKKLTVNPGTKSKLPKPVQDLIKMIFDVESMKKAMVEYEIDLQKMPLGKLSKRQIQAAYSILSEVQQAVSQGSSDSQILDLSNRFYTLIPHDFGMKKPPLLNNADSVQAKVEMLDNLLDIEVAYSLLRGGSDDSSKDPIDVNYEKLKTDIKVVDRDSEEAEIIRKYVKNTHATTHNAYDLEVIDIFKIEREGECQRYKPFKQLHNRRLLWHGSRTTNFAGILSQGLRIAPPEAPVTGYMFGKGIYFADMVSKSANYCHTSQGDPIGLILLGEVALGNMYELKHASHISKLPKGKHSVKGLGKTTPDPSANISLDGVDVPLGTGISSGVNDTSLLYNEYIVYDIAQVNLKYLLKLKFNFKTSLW

On to “5′-mC*mG*mA*mA*mA*C*A*T*T*G*G*C*A*C*A*mC*mA*mG*mC*mA-3′ (antisense CGAAACATTGGCACACAGCA; sugars from the 5' end m5 d10 m5, all phosphorothioate, methylation of C not given here) [anti-MALAT1-1]”, for which, in the series with γH2A.X, the “frequency of DNA break (γH2A.X)” value was “increased substantially”. In addition, the “MALAT1 level (qRT-PCR)” value with MALAT1 is reported as “efficiently knocked-down”.
For “5′-mG*mG*mC*mA*mU*A*T*G*C*A*G*A*T*A*A*mU*mG*mU*mU*mC-3′ (antisense GGCAUATGCAGATAAUGUUC; sugars from the 5' end m5 d10 m5, all phosphorothioate, methylation of C not given here) [anti-MALAT1-2]” the same measures were “increased substantially” and “efficiently knocked-down”.
For `C[C@]1(c2nc3c(C(N)=O)cccc3[nH]2)CCCN1` [ABT888], the PAR signal result on PARP1 (H929 and MM.1S, treated synchronously with anti-MALAT1 and ABT888) was “dose-dependent decreased”. Also, the “level of γH2A.X, cleaved PARP1, and cleaved caspase-3” value on PARP1 (combination treatment anti-MALAT1 and ABT888) was “significantly increased”.
`CC(C)C[C@H](NC(=O)[C@H](Cc1ccccc1)NC(=O)c1cnccn1)B(O)O` [bortezomib]: in the series with BRCA1 and BRCA2, the “expression of BRCA1 and BRCA2” value is on record as “dramatically down-regulated”. In addition, the IC50 (in general, the concentration needed to halve the response being measured) is 194 nM in the series on RPMI8226/V10R cells (control oligos, 72 hours); 144 nM in the series with RPMI8226/V10R cells (setting [2]); 10.1 nM in the series with RPMI8226 cells (control); 8.2 nM in the series with RPMI8226 cells (transfected with 1 nM anti-MALAT1); 6.6 nM with MM.1S cells (MM.1S cells transfected with 1 nM anti-MALAT1); 8.9 nM in the series on MM.1S cells (MM.1S cells, control (before MALAT1 knockdown)). In addition, the 50% inhibitory concentration (IC50) with H929 cells (NCI-H929, H929 cells transfected with 1 nM anti-MALAT1) was found to be 3.6 nM; in the series on H929 cells (NCI-H929, H929 cells, control (before MALAT1 knockdown)), 4.9 nM. In addition, the “γH2A.X signals and apoptosis ratio” value in series [1] is listed as “increased”.
In the case of `COc1cccc2c1C(=O)c1c(O)c3c(c(O)c1C2=O)C[C@@](O)(C(=O)CO)C[C@@H]3O[C@H]1C[C@H](N)[C@H](O)[C@H](C)O1` [doxorubicin], the IC50 in the series on RPMI8226/DOX40 cells (control oligos, 72 hours) was found to be 2460 nM; with RPMI8226/DOX40 cells (setting [2]), 1480 nM.
With `N[C@@H](Cc1ccc(N(CCCl)CCCl)cc1)C(=O)O` [melphalan], the IC50 in the series on RPMI8226/LR5 cells (control oligos, 72 hours) worked out at 53400 nM; in the series on RPMI8226/LR5 cells (setting [2]) it was 34000 nM.
